What was measured:
aminopeptidase B [1] = biological target: T1, aminopeptidase B (Rattus norvegicus, UniProt O09175); test: Inhibitory Activity to Aminopeptidase B; type: biochemical; conditions: pH 7.0, 37° C., 30 minutes, substrate arginine-β-naphthylamide; read-out: IC50 (50% inhibitory ratio) (converted)
T1 construct: an aminopeptidase B solution purified by the same enzyme purification process as in the process by Hopsu et al; from tissue
T1 sequence (O09175 1-650): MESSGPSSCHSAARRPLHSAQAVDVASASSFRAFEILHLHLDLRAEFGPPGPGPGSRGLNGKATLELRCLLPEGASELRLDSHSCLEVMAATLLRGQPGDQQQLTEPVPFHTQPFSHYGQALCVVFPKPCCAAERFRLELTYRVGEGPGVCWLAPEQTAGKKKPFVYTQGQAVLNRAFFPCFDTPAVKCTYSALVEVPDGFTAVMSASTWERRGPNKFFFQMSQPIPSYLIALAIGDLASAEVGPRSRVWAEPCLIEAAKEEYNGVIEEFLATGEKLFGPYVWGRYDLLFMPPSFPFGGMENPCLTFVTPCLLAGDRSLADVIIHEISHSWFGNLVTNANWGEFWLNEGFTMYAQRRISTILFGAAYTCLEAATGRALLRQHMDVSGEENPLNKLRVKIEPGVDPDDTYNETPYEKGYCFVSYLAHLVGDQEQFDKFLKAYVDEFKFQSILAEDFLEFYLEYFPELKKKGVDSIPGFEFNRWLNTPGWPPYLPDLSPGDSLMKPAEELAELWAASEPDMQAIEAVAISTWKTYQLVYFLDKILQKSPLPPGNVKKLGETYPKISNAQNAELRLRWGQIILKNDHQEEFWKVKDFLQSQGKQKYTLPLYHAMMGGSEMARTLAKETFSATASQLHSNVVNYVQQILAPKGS
Protocol: Measurement for the inhibitory activity to aminopeptisase B was conducted by the method reported by Hopsu et al. while somewhat modifying the process [V. K. Hopsu, K. K. Makinen, G. G. Glenner; Archives of Biochemistry and Biophysics, 114, 557 (1966)].
A mixed solution (pH 7.0) prepared by adding 1.0 ml of a 0.1 M tris-hydrochloric acid buffer solution and 0.7 ml of a solution containing a test specimen to 0.3 ml of 0.1 mM arginine-β-naphthylamide was heated at 37° C. for 4 minutes. Thereafter, 0.2 ml of an aminopeptidase B solution purified by the same enzyme purification process as in the process by Hopsu et al. using Sephadex G-100 (registered Trademark) was added and reacted at 37° C. for 30 minutes. Then, 0.6 ml of a 1.0 M acetic acid buffer solution (pH 4.2) containing Garnet GBC (o-aminoazotoluenediazonium salt) at 1.0 mg/ml concentration and containing Tween 20 (registered trademark) at 1.0% concentration was further added and left for 15 minutes at room temperature, after which absorption ratio (a) at 530 nm was measured. The absorption ratio (b) for the blind solution using only the buffer solution containing no specimen was simultaneously mesured, and the inhibitory ratio to aminopeptidase B was calculated as (b-a)/b×100.
Inhibitory ratios for each of the specimens at several concentrations were determined by the above test method, from which 50% inhibitory ratios (IC50) were deduced.

[2] = isolated from culture filtrates of Streptomyces olivoreticuli; cited from earlier work
immunoresponse = conditions: Japanese Patent Laid-Open Publication No. 117435/1977; cited from earlier work
cancer = conditions: Japanese Patent Laid-Open Publication No. 117435/1977; cited from earlier work
aminopeptidase B [3] = biological target: T1, aminopeptidase B; conditions: U.S. Pat. No. 4,029,547; cited from earlier work

COc1ccc(C[C@@H](N)[C@H](O)C(=O)N[C@@H](CC(C)C)C(=O)O)cc1 [No. 1, (2S,3R)-3-amino-2-hydroxy-4-(4-methoxyphenyl)butanoyl-(S)-leucine]
IC50 (aminopeptidase B [1]): 17.7 nM

COc1ccccc1CC(N)C(O)C(=O)N[C@@H](CC(C)C)C(=O)O (stereo partly drawn) [No. 2, Threo-(2RS)-3-amino-2-hydroxy-4-(2-methoxyphenyl)butanoyl-(S)-leucine]
IC50 (aminopeptidase B [1]): 8570 nM

COc1cccc(CC(N)C(O)C(=O)N[C@@H](CC(C)C)C(=O)O)c1 (stereo partly drawn) [No. 3, Threo-(2RS)-3-amino-2-hydroxy-4-(3-methoxyphenyl)butanoyl-(S)-leucine]
IC50 (aminopeptidase B [1]): 118 nM

CC(C)C[C@H](NC(=O)C(O)C(N)Cc1cccc2ccccc12)C(=O)O (stereo partly drawn) [No. 4, Threo-(2RS)-3-amino-2-hydroxy-4-(1-naphthyl)butanoyl-(S)-leucine]
IC50 (aminopeptidase B [1]): 4180 nM

CC(C)C[C@H](NC(=O)C(O)C(N)Cc1ccc2ccccc2c1)C(=O)O (stereo partly drawn) [No. 5, Threo-(2RS)-3-amino-2-hydroxy-4-(2-naphthyl)butanoyl-(S)-leucine]
IC50 (aminopeptidase B [1]): 279 nM

CC(C)C[C@H](NC(=O)C(O)C(N)Cc1ccc(-c2ccccc2)cc1)C(=O)O (stereo partly drawn) [No. 6, Threo-(2RS)-3-amino-2-hydroxy-4-(4-phenylphenyl)butanoyl-(S)-leucine]
IC50 (aminopeptidase B [1]): 9360 nM

CC(C)Cc1ccc(CC(N)C(O)C(=O)N[C@@H](CC(C)C)C(=O)O)cc1 (stereo partly drawn) [No. 8, Threo-(2RS)-3-amino-2-hydroxy-4-(4-iso-butylphenyl)butanoyl-(S)-leucine]
IC50 (aminopeptidase B [1]): 7680 nM

CC(C)C[C@H](NC(=O)C(O)C(N)Cc1ccc(O)c(O)c1)C(=O)O (stereo partly drawn) [No. 9, Threo-(2RS)-3-amino-2-hydroxy-4-(3,4-dihydroxyphenyl)butanoyl-(S)-leucine]
IC50 (aminopeptidase B [1]): 5290 nM

CC(C)C[C@H](NC(=O)C(O)C(N)Cc1ccc(OC(C)C)cc1)C(=O)O (stereo partly drawn) [No. 10, Threo-(2RS)-3-amino-2-hydroxy-4-(4-iso-propoxyphenyl)butanoyl-(S)-leucine]
IC50 (aminopeptidase B [1]): 18600 nM

CC(C)COc1ccc(CC(N)C(O)C(=O)N[C@@H](CC(C)C)C(=O)O)cc1 (stereo partly drawn) [No. 11, Threo-(2RS)-3-amino-2-hydroxy-4-(4-iso-butoxyphenyl)butanoyl-(S)-leucine]
IC50 (aminopeptidase B [1]): 11800 nM

CC(C)C[C@H](NC(=O)C(O)C(N)Cc1ccc(F)cc1)C(=O)O (stereo partly drawn) [No. 12, Threo-(2RS)-3-amino-2-hydroxy-4-(4-fluorophenyl)butanoyl-(S)-leucine]
IC50 (aminopeptidase B [1]): 91.9 nM

CC[C@H](C)[C@H](NC(=O)C(O)C(N)Cc1ccc2ccccc2c1)C(=O)O (stereo partly drawn) [No. 13, Threo-(2RS)-3-amino-2-hydroxy-4-(2-naphthyl)butanoyl-(S)-isoleucine]
IC50 (aminopeptidase B [1]): 83.7 nM

COc1ccc(C[C@@H](N)[C@H](O)C(=O)N[C@H](C(=O)O)C(C)C)cc1 [No. 14, (2S,3R)-3-amino-2-hydroxy-4-(4-methoxyphenyl)butanoyl-(S)-valine]
IC50 (aminopeptidase B [1]): 216 nM

CC(C)C[C@H](NC(=O)C(O)C(N)Cc1ccccc1O)C(=O)O (stereo partly drawn) [No. 15, Threo-(2RS)-3-amino-2-hydroxy-4-(2-hydroxyphenyl)butanoyl-(S)-leucine]
IC50 (aminopeptidase B [1]): 1630 nM

CC(C)C[C@H](NC(=O)C(O)C(N)Cc1cccc(O)c1)C(=O)O (stereo partly drawn) [No. 16, Threo-(2RS)-3-amino-2-hydroxy-4-(3-hydroxyphenyl)butanoyl-(S)-leucine]
IC50 (aminopeptidase B [1]): 277 nM

CC(C)C[C@H](NC(=O)[C@@H](O)[C@H](N)Cc1ccccc1)C(=O)O [bestatin, (2S,3R)-3-amino-2-hydroxy-4-phenylbutanoyl-(S)-leucine]
toxicity [2]: least toxic | effect to immunoresponse such as delayed hypersthesia (immunoresponse): increasing effect to immunoresponse such as delayed hypersthesia | in vivo defense mechanism (immunoresponse): activate in vivo defense mechanism | effects for cancer (cancer): inhibitive effects for cancer | aminopeptidase B inhibitor (aminopeptidase B [3]): aminopeptidase B inhibitor

CC(C)C[C@H](NC(=O)C(O)C(N)Cc1ccc(C(C)C)cc1)C(=O)O (stereo partly drawn) [compound 7]
IC50 (aminopeptidase B [1]): 342 nM

Source: patent US4281180A, “Process for producing threo-3-amino-2-hydroxybutanoyl-aminoacetic acids, as well as novel intermediated therefor and process for producing them” (Nippon Kayaku Kabushiki Kaisha, priority 1978, dated 1981)
